Measured values from patent publication US10647679B2, “N-methyl-D-aspartate receptor (NMDAR) potentiators, pharmaceutical compositions, and uses related thereto” (Emory University, priority 2015, dated 2020).
pEC50: −log10 of the molar value. Where two headings read alike, the source gives them in different places. Blank lines part the entries; values can stand above or below the compound they belong to.

What was measured:
Assay type in all cases: cell-based
[1] = target: T1, recombinant rat GluN1/GluN2C (Rattus norvegicus, UniProt P35439+Q00961); experiment: Two-electrode voltage-clamp (TEVC) recordings in Xenopus laevis oocytes, GluN1/GluN2C
T1 construct: expressed in transfected cells; host or cells: Xenopus laevis oocytes (Ecocyte) injected with in vitro transcribed cRNA
T1 sequence (Q00961 20-1237, other chains not shown): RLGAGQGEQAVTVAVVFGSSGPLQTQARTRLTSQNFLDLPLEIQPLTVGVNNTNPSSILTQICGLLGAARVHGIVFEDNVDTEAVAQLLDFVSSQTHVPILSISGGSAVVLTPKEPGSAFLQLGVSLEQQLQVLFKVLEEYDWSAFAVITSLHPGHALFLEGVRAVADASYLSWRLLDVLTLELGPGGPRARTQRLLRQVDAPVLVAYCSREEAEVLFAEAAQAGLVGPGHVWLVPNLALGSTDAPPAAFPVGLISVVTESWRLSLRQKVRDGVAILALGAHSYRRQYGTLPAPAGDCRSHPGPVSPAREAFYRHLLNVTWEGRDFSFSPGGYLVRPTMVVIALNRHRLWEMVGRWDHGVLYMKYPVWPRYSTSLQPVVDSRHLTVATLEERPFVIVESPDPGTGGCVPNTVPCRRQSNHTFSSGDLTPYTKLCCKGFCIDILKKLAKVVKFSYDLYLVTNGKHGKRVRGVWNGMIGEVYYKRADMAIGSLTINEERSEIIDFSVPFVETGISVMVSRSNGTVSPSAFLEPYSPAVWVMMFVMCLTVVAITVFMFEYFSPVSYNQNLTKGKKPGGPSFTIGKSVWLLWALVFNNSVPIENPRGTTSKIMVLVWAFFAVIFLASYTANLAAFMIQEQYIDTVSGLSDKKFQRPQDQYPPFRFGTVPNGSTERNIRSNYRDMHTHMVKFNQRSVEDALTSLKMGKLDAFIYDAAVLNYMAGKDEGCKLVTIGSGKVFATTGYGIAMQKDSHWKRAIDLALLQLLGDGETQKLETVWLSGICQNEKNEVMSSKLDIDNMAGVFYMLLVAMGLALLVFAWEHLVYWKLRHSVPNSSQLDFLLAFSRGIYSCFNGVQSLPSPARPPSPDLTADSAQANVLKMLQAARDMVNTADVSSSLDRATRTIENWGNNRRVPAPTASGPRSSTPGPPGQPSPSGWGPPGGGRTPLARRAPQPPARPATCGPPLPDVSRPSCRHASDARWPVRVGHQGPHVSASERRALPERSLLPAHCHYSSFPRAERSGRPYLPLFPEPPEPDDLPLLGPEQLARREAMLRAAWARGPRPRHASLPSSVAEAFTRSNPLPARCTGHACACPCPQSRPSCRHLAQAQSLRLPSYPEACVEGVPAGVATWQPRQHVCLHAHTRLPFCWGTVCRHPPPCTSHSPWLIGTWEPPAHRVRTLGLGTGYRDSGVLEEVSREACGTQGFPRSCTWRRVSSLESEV
Protocol: (§1) Data are from between 3-26 oocytes from 2-5 frogs for each compound and receptor tested.
(§2) Two-electrode voltage-clamp recordings were performed in Xenopus laevis oocytes (Ecocyte) expressing recombinant rat GluN1/GluN2A, GluN1/GluN2B, GluN1/GluN2C, GluN1/GluN2D. cRNA was transcribed in vitro (Ambion), diluted with nuclease free water, and injected at a ratio of 1:2 GluN1:GluN2 (5-10 ng total cRNA). The oocytes were kept in Barth's solution comprised of (in mM) 88 NaCl, 5 Tris-HCl, 2.4 NaHCO3, 1 KCl, 0.84 MgSO4, 0.41 CaCl2, and 0.33 Ca(NO3)2 at pH 7.4 at 15-17° C. for two to five days before experiments. Oocytes were placed into a perfusion chamber and continually washed with recording solution containing (in mM) 90 NaCl, 1.0 KCl, 0.5 BaCl2, 0.005 EDTA, and 10 HEPES at pH 7.4 (23° C.). Voltage clamp recordings were conducted at a holding potential of −40 mV. All compounds were made as 20 mM stock solutions in DMSO and dissolved to reach the final concentration in recording solution. Final DMSO content was 0.05-0.5% (vol/vol). Some oocytes expressing GluN1/GluN2A were pretreated with […] BAPTA-AM for 10 minutes or injected with […] of 2 mM K-BAPTA to prevent gradual run-up of the current response.

[2] = target: T2, recombinant rat GluN1/GluN2D (Rattus norvegicus, UniProt P35439+Q62645); experiment: Two-electrode voltage-clamp (TEVC) recordings in Xenopus laevis oocytes, GluN1/GluN2D
T2 construct: expressed in transfected cells; host or cells: Xenopus laevis oocytes (Ecocyte) injected with in vitro transcribed cRNA
Protocol: as §1, §2

[3] = target: T3, recombinant rat GluN1/GluN2B (Rattus norvegicus, UniProt P35439+Q00960); experiment: Two-electrode voltage-clamp (TEVC) recordings in Xenopus laevis oocytes, GluN1/GluN2B
T3 construct: expressed in transfected cells; host or cells: Xenopus laevis oocytes (Ecocyte) injected with in vitro transcribed cRNA
T3 sequence (Q00960 27-1482, other chains not shown): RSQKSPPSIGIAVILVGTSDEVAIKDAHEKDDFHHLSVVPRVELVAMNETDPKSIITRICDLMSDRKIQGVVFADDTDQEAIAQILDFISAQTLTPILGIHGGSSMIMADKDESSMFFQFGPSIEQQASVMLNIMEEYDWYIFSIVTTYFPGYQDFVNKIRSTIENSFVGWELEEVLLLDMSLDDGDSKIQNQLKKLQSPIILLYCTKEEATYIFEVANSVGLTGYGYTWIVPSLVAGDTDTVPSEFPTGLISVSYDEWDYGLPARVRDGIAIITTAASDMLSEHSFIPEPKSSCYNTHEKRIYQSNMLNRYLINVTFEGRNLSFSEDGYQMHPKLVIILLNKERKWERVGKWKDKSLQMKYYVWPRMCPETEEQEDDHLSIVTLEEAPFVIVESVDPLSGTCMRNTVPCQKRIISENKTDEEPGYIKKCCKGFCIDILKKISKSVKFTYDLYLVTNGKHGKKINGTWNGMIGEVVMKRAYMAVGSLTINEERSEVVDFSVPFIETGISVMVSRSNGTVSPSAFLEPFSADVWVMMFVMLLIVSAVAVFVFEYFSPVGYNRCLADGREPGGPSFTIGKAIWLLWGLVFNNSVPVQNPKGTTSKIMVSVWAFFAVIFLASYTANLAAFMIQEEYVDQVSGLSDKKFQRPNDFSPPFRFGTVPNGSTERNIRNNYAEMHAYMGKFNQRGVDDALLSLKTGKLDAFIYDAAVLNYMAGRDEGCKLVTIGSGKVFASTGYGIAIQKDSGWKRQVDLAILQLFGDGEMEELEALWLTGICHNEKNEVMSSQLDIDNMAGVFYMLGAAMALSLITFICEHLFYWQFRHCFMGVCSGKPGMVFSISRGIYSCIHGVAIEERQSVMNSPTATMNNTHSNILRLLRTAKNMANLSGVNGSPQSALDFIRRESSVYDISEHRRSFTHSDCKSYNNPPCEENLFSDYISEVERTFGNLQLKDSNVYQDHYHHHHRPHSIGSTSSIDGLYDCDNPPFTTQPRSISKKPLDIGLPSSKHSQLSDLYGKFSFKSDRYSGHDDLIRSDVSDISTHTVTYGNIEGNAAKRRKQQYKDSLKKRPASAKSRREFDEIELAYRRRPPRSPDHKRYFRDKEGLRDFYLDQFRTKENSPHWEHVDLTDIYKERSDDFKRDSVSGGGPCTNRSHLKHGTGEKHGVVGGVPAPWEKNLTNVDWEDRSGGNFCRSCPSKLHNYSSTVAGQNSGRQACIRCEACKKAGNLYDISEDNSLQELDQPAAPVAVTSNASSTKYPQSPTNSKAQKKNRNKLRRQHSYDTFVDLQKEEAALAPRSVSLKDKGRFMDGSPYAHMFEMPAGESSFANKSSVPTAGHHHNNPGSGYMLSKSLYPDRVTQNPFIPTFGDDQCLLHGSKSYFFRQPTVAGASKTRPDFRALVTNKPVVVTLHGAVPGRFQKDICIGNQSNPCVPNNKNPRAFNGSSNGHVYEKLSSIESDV
Protocol: as §1, §2

[4] = target: T4, recombinant rat GluN1/GluN2B (Rattus norvegicus, UniProt Q00960); experiment: as above; conditions: for I30 μM/Icontrol (mean ± SEM, %) GluN2B: 30 μM compound, Tables 5-7; for I10 μM/Icontrol (mean ± SEM, %) GluN2B: 10 μM compound, Table 3
T4 construct: expressed in transfected cells; host or cells: Xenopus laevis oocytes (Ecocyte) injected with in vitro transcribed cRNA
T4 sequence (Q00960 27-1482, other chains not shown): as above
Protocol: as §1, §2

[5] = target: T5, recombinant rat GluN1/GluN2C (Rattus norvegicus, UniProt Q00961); experiment: Two-electrode voltage-clamp (TEVC) recordings in Xenopus laevis oocytes, GluN1/GluN2C; conditions: for I30 μM/Icontrol (mean ± SEM, %) GluN2C: 30 μM compound, Tables 5-7; for I10 μM/Icontrol (mean ± SEM, %) GluN2C: 10 μM compound, Table 3
T5 construct: expressed in transfected cells; host or cells: Xenopus laevis oocytes (Ecocyte) injected with in vitro transcribed cRNA
T5 sequence (Q00961 20-1237, other chains not shown): as the sequence (Q00961 20-1237, other chains not shown) above
Protocol: as §1, §2

[6] = target: T6, recombinant rat GluN1/GluN2D (Rattus norvegicus, UniProt Q62645); experiment: Two-electrode voltage-clamp (TEVC) recordings in Xenopus laevis oocytes, GluN1/GluN2D; conditions: for I30 μM/Icontrol (mean ± SEM, %) GluN2D: 30 μM compound, Tables 5-7; for I10 μM/Icontrol (mean ± SEM, %) GluN2D: 10 μM compound, Table 3
T6 construct: expressed in transfected cells; host or cells: Xenopus laevis oocytes (Ecocyte) injected with in vitro transcribed cRNA
Protocol: as §1, §2

[7] = maximum potentiation, response without modulator = 100%, read-out: GluN2C EC50 (μM)/Max %: Max %
[8] = maximum potentiation, response without modulator = 100%, read-out: GluN2D EC50 (μM)/Max %: Max %
[9] = fitted when potentiation at 30 μM exceeded 120%, Tables 3, 5-7, read-out: EC50 (max.) (μM %) GluN2B: fitted EC50
[10] = percentage of the initial glutamate (100 μM) and glycine (30 μM) current, read-out: EC50 (max.) (μM %) GluN2B: fitted maximum response
[11] = fitted when potentiation at 30 μM exceeded 120%, Tables 3, 5-7, read-out: EC50 (max.) (μM %) GluN2C: fitted EC50
[12] = percentage of the initial glutamate (100 μM) and glycine (30 μM) current, read-out: EC50 (max.) (μM %) GluN2C: fitted maximum response
[13] = untitled tables after drawing 25 and drawing 36, read-out: EC50 (μM) GluN2C
[14] = untitled tables after drawing 25 and drawing 36, read-out: EC50 (μM) GluN2D
[15] = maximum potentiation, response without modulator = 100%, read-out: GluN2B EC50 (μM)/Max %: Max %
[16] = Tables 11-13, read-out: EC50 & Max Effect: 2C Max (%)
[17] = Tables 11-13, read-out: EC50 & Max Effect: 2D Max (%)
[18] = fitted when potentiation at 30 μM exceeded 120%, Tables 3, 5-7, read-out: EC50 (max.) (μM %) GluN2D: fitted EC50
[19] = percentage of the initial glutamate (100 μM) and glycine (30 μM) current, read-out: EC50 (max.) (μM %) GluN2D: fitted maximum response

Structure (SMILES): COc1ccc(OCC2c3ccc(N(C)C)cc3CCN2C(=S)c2cccc(Cl)c2)cc1 (stereo not shown) [1180-167]
Emax [1, 7]: 134%
Emax [2, 8]: 127%

Structure (SMILES): COc1ccc(OC[C@@H]2c3cc(OC)c(OC)cc3CCN2C(=O)c2cccc(Cl)c2)cc1 [S-1390]
EC50 ([1]; EC50 & Max Effect: 2C (μM)): 6.1 µM
Emax ([1]; read-out: EC50 & Max Effect: 2C Max (%)): 275%
Emax ([2]; read-out: EC50 & Max Effect: 2D Max (%)): 299%

Structure (SMILES): COc1ccc(OCC2c3ccc(SCc4ccccc4)cc3CCN2C(=O)c2cccc(Cl)c2)cc1 (stereo not shown) [drawing 33 R1=Cl R2=H R3=H R4=SBn R5=H]
pEC50 ([1]; Tables 11-13, read-out: EC50 & Max Effect: 2C): 6.40
Emax [1, 16]: 226%
pEC50 ([2]; Tables 11-13, read-out: EC50 & Max Effect: 2D): 6.37
Emax [2, 17]: 213%

Structure (SMILES): COc1ccc(OC[C@H]2c3ccc(OC(C)C)cc3CCN2C(=O)c2cccc(Cl)c2)cc1 [(R)-(+)-1180-55]
EC50 [3, 9]: 5 µM
Emax [3, 10]: 167%
I10 μM/Icontrol (mean ± SEM, %) GluN2B [4]: 150%
Emax [1, 12]: 342%
I10 μM/Icontrol (mean ± SEM, %) GluN2C [5]: 323%
EC50 [2, 18]: 1.3 µM
Emax [2, 19]: 384%
I10 μM/Icontrol (mean ± SEM, %) GluN2D [6]: 345%

Structure (SMILES): COc1ccc(OCC2c3ccc(OC)cc3CCN2C(=O)CCCC(F)(F)F)cc1 (stereo not shown) [1180-252]
GluN2B response % at 30 µM [4]: 96% at 30
EC50 [1, 13]: 11 µM
EC50 [2, 14]: 14 µM

Structure (SMILES): COc1ccc(OCC2c3ccc(N(C)C)cc3CCN2C(=O)c2cccc(Br)c2)cc1 (stereo not shown) [drawing 33 R1=Br R2=H R3=H R4=NMe2 R5=H]
Emax [1, 16]: 293%
Emax [2, 17]: 327%

Now from value to compound:

EC50 [3, 9]: 6.7 µM
Emax [3, 10]: 206%
I30 μM/Icontrol (mean ± SEM, %) GluN2B [4]: 195%
EC50 [1, 11]: 7.6 µM
Emax [1, 12]: 132%
I30 μM/Icontrol (mean ± SEM, %) GluN2C [5]: 131%
I30 μM/Icontrol (mean ± SEM, %) GluN2D [6]: 119%
Structure (SMILES): CCOc1ccc(OC[C@@H]2c3ccc(OC(C)C)cc3CCN2C(=O)c2cccc(F)c2)cc1 [(S)-(−)-1180-87]

GluN2B response % at 30 µM [4]: 107% at 30
EC50 [1, 13]: 2.6 µM
EC50 [2, 14]: 5.5 µM
Structure (SMILES): COc1ccc(OCC2c3ccc(OC)cc3CCN2C(=O)c2ccc(Cl)o2)cc1 (stereo not shown) [1180-234]

Emax [3, 15]: 182%
Emax [1, 7]: 175%
Emax [2, 8]: 135%
Structure (SMILES): CCOc1ccc(OCC2c3ccc(OC(C)C)cc3CCN2C(=O)c2ccc(F)c(Cl)c2)cc1 (stereo not shown) [1180-144]

I10 μM/Icontrol (mean ± SEM, %) GluN2B [4]: 121%
Emax [1, 12]: 252%
I10 μM/Icontrol (mean ± SEM, %) GluN2C [5]: 252%
EC50 [2, 18]: 2.3 µM
Emax [2, 19]: 255%
I10 μM/Icontrol (mean ± SEM, %) GluN2D [6]: 215%
Structure (SMILES): COc1ccc(OC[C@H]2c3ccc(OC(C)C)cc3CCN2C(=S)c2cccc(Cl)c2)cc1 [(R)-(+)-1180-163]

Emax [3, 15]: 132%
Emax [1, 7]: 315%
Emax [2, 8]: 349%
Structure (SMILES): COc1ccc(OCC2c3ccc(N(C)C)cc3CCN2C(=O)c2cccc(Cl)c2)cc1 (stereo not shown) [1180-104]

Emax [1, 16]: 197%
Emax [2, 17]: 211%
Structure (SMILES): COc1ccc(OCC2c3cc(C)c(C)cc3CCN2C(=O)c2cccc(Br)c2)cc1 (stereo not shown) [drawing 33 R1=Br R2=H R3=H R4=Me R5=Me]

EC50 [3, 9]: 1.4 µM
Emax [3, 15]: 130%
Emax [3, 10]: 134%
I30 μM/Icontrol (mean ± SEM, %) GluN2B [4]: 120%
EC50 [1, 11]: 0.65 µM
Emax [1, 7]: 137%
Emax [1, 12]: 139%
I30 μM/Icontrol (mean ± SEM, %) GluN2C [5]: 134%
I30 μM/Icontrol (mean ± SEM, %) GluN2D [6]: 101%
Structure (SMILES): CCOc1ccc(OCC2c3ccc(OC(C)C)cc3CCN2C(=O)c2ccc(Cl)c(Cl)c2)cc1 (stereo not shown) [1180-103]

EC50 ([3]; untitled tables after drawing 25 and drawing 36, read-out: EC50 (μM) GluN2B): 1.6 µM
EC50 [1, 13]: 0.9 µM
EC50 [2, 14]: 1 µM
Structure (SMILES): COc1ccc(OCC2c3ccc(OC)cc3CCN2C(=O)c2ccc(Cl)s2)cc1 (stereo not shown) [1180-239]
